For orientation: IC50 means the point on the concentration scale where inhibition reaches its midpoint.

Here are results for two molecules from publication PMC11377542, “An artificial intelligence accelerated virtual screening platform for drug discovery” (Nature Communications, 2024).

Data set [1] deals with T1, KLHDC2 (Homo sapiens, UniProt Q9Y2U9).
T1 construct: human KLHDC2 (UniProt: Q9Y2U9, amino acid 1–362); made in house; host or cells: HighFive insect cells (baculovirus, pFastBac)
T1 sequence (Q9Y2U9 1-362): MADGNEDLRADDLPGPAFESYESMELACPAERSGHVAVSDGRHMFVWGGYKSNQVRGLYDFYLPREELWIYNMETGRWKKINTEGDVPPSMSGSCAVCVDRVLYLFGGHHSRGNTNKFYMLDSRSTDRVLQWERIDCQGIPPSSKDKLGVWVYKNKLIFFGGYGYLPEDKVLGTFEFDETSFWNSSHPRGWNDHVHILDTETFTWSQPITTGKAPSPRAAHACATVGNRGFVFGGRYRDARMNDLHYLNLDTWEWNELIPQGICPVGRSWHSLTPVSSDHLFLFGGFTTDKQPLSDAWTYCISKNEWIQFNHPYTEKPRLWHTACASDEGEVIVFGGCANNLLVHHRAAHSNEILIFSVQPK
As to the kind of experiment: Octet BioLayer Interferometry competition assay (biotinylated SelK peptide / GST-KLHDC2). It counts as binding. Particulars: BLI competition, C29 at 0-30 µM, 50 nM GST-KLHDC2. The protocol:
Octet BioLayer interferometry competition assay monitoring the ability of C29 to interfere with the binding between the biotinylated 12 aa SelK peptide and GST-KLHDC2 was monitored using the Octet Red 96 (ForteBio, Pall Life Sciences) following the manufacturer’s procedures. The reaction was carried out in black 96 well plates maintained at 30 °C. The reaction volume was 200 μL in each well. The Octet buffer used throughout the experiment contained 20 mM Tris-HCl, 200 mM NaCl, 5 mM DTT and 0.1% BSA, pH 8.0. The Loading buffer contained the Octet buffer and biotinylated 12 aa SelK peptide, at a final concentration of 200 nM. […] The binding of the analyte GST-KLHDC2 in the presence or absence of the C29, to the optical probes was measured simultaneously using instrumental defaults for 225 sec as the probes were then incubated in Association buffer. The dissociation was measured for 600 sec while the probes were incubated in Octet buffer. […] The data were analyzed by the Octet data analysis software version 9.0.. […] The IC50 value was calculated using Prism 8 (GraphPad) from the nonlinear regression curve fit of the response values vs. log competitor concentration.
Supplementary Fig. 14 | BioLayer Interferometry competition assay of compound 29. […] The binding of the analyte GST-KLHDC2 in the presence or absence of the C29, to the loaded optical probes was measured in the association buffer. […]
Background: Biolayer interferometry detects binding as a change in optical thickness at a sensor tip.

The target of data set [2] is T1, KLHDC2. As to the kind of experiment: AlphaLISA competition assay (displacement of SelK C-end degron peptide from GST-KLHDC2). Particulars: IC50, competition with biotinylated 12 aa SelK degron peptide; 12-point titration, n = 3 technical replicates. It is filed as binding. The source says:
We took the top-ranked 1000 compounds and filtered out compounds with low predicted solubility, unsatisfied hydrogen bonds in the bound conformation, and followed by similarity clustering to reduce the redundancy in ligand structures. A total of 54 molecules that passed the filtering and clustering were manually examined for favorable interactions and geometries in PyMol[34]. Finally, 37 compounds were chosen for chemical synthesis. Out of these, 29 compounds were successfully synthesized (Supplementary Fig. 13) and characterized in an AlphaLISA competition assay, in which each compound was tested for its ability to compete with a diglycine-containing SelK C-end degron peptide for binding KLHDC2. […] This single digit μM IC50 was further confirmed in a competition assay using BioLayer Interferometry (Supplementary Fig. 14).
The kelch repeat domain of human KLHDC2 (UniProt: Q9Y2U9, amino acid 1–362) was subcloned into the pFastBac vector with an N-terminally fused glutathione-S-transferase (GST), and a TEV-cleavage site. A recombinant baculovirus was produced and amplified three times in Sf9 monolayer cells to produce P4. The P4 virus was used to infect HighFive suspension insect cell cultures to produce the recombinant GST-KLHDC2 protein. The cells were harvested 2–3 days post-infection, re-suspended, and lysed in lysis buffer (20 mM Tris, pH 8.0, 200 mM NaCl, 5 mM DTT) in the presence of protease inhibitors (1 μg/ml Leupeptin, 1 μg/ml Pepstatin and 100 μM PMSF) using a microfluidizer. The GST-KLHDC2 protein was isolated from the soluble cell lysate by PierceTM Glutathione Agarose (Thermo Scientific). For AlphaLISA competition assays, the GST-tagged KLHDC2 was further purified by Q Sepharose High-Performance resin (GE Healthcare). The NaCl eluates were subjected to a Superdex-200 size exclusion chromatography column (GE Healthcare). All samples were flash-frozen in liquid nitrogen for storage prior to use. For protein crystallization, the kelch repeat domain of human KLHDC2 (amino acids 22–362) was subcloned into the pET vector with an N-terminally fused His-elongation factor Ts (TSF) and a TEV-cleavage site. The His-TSF-KLHDC2 protein was overexpressed and purified from BL21 (DE3) E. coli cells. Bacterial cells transformed with the pET-based expression plasmid were grown in LB broth to an OD600 of 0.8–1 and induced with 0.5 mM IPTG. Cells were harvested, re-suspended, and lysed in lysis buffer (20 mM Tris, pH 8.0, 200 mM NaCl, 20 mM imidazole) in the presence of protease inhibitors (1 μg mL–1 leupeptin, 1 μg mL–1 pepstatin and 100 μM phenylmethylsulfonyl fluoride) using a microfluidizer. The His-TSF-KLHDC2 protein was isolated from the soluble cell lysate by HisPurTM Ni-NTA Superflow Agarose (Thermo Fisher Scientific, Waltham, Massachusetts). After TEV cleavage of the His-TSF, KLHDC2 was further purified by Mono Q™ 5/50 GL (GE Healthcare, Chicago, Illinois). The NaCl eluates were subjected to Superdex-200 size-exclusion chromatography (GE Healthcare). Native mass spectrometry was used to confirm KLHDC2 in its apo form. The samples were concentrated by ultrafiltration to 10–22 mg mL−1. All samples were flash-frozen in liquid nitrogen for storage prior to use.
AlphaLISA assays for determining and measuring protein-protein interactions were performed using an EnSpire reader (PerkinElmer). GST-tagged KLHDC2 was attached to anti-GST AlphaLISA acceptor beads. Synthetic N-terminal biotinylated 12 aa SelK degron peptide ([Biotin]HLRGSPPPMAGG[C) (Bio-Synthesis, Inc.) was immobilized to streptavidin-coated AlphaLISA donor beads. The donor and acceptor beads were brought into proximity by the interactions between the SelK peptide and KLHDC2. Excitation of the donor beads by a laser beam of 680 nm promotes the formation of singlet oxygen. When an acceptor bead is in close proximity, the singlet oxygen reacts with thioxene derivatives in the acceptor beads and causes the emission of 615 nm photons, which are detected as the binding signal. […]

Data set [3] concerns the target T2, human NaV1.5 (Homo sapiens, UniProt Q14524).
T2 construct: expressed in transfected cells
In words: Whole-cell patch-clamp electrophysiology on human NaV1.5 stably expressed in HEK-293 cells. It is filed as cell-based. The note with it: -80 mV holding potential (inactivated state); mean. How it is done:
(§1) HEK-293 cells stably expressing human NaV1.5 and NaV1.7 were obtained from Dr. Chris Lossin (UC Davis, CA). HEK293 cells stably expressing HERG (hKv11.1) were a gift from Craig January (University of Wisconsin, Madison). Cells were cultured in complete DMEM supplemented with 10% FBS, 1% penicillin/streptomycin, and G418. All manual whole-cell patch-clamp recordings were performed at room temperature (22–24 °C) using an EPC-10 amplifier (HEKA Electronik, Lambrecht/Pfalz, Germany) on cells that were grown to 60–80% confluency, lifted with TrypLE, and plated onto poly-l-lysine–coated coverslips. External bath solution contains (in mM) 160 NaCl, 4.5 KCl, 2 CaCl2, 1 MgCl2, 10 HEPES (pH 7.4 and 305 mOsm) as. Patch pipettes were heat-pulled from soda lime glass (micro-hematocrit tubes, Kimble Chase, Rochester, NY) and had resistances of 2–3 MΩ when filled with an internal solution. […] Inhibition of currents in the resting state was recorded using a holding potential of − 120 mV. Control test currents were monitored for up to 5–10 min to ensure that the amplitude and kinetics of the response were stable. […] The percent reduction of HERG tail current amplitude by the compounds was determined. The percent of a block of tail current amplitude by the drugs was determined and data are shown as mean +/− SD (n = 3–4 per data point).
A general note: Patch clamp records ionic current or voltage across a cell membrane.

Data set [4] addresses T3, hNaV1.7 channel (Homo sapiens, UniProt Q15858).
T3 construct: expressed in transfected cells
In words: Whole-cell patch-clamp electrophysiology on hNaV1.7 stably expressed in HEK-293 cells. It counts as cell-based. Particulars: for IC50: mean. From the text:
We first clustered the top 100,000 ranked small molecules, then applied filters on the top 1000 cluster representative molecules. A total of 160 molecules that passed the clustering and filtering were examined manually. To ensure the chemical novelty of our selection, we specifically excluded molecules that contain the known arylsulfonamide warhead or structurally resemble antihistamines or beta-receptor blockers. Finally, ten molecules with Tanimoto similarities of less than 0.33 to the known inhibitors of NaV1.7 from the ChEMBL database[43],[44] were selected for synthesis. Of these, nine were successfully synthesized (Supplementary Fig. 16), and their activities were measured using the whole-cell patch-clamp electrophysiology assay on hNaV1.7 channel stably expressed in HEK-293 cells as described in Methods.
HEK-293 cells stably expressing human NaV1.5 and NaV1.7 were obtained from Dr. Chris Lossin (UC Davis, CA). HEK293 cells stably expressing HERG (hKv11.1) were a gift from Craig January (University of Wisconsin, Madison). Cells were cultured in complete DMEM supplemented with 10% FBS, 1% penicillin/streptomycin, and G418. All manual whole-cell patch-clamp recordings were performed at room temperature (22–24 °C) using an EPC-10 amplifier (HEKA Electronik, Lambrecht/Pfalz, Germany) on cells that were grown to 60–80% confluency, lifted with TrypLE, and plated onto poly-l-lysine–coated coverslips. External bath solution contains (in mM) 160 NaCl, 4.5 KCl, 2 CaCl2, 1 MgCl2, 10 HEPES (pH 7.4 and 305 mOsm) as. Patch pipettes were heat-pulled from soda lime glass (micro-hematocrit tubes, Kimble Chase, Rochester, NY) and had resistances of 2–3 MΩ when filled with an internal solution. Patch recordings of NaV1.5 and NaV1.7 channels were done using a cesium fluoride-based internal solution containing (in mM) 10 NaF, 110 CsF, 20 CsCl, 10 HEPES, 2 EGTA, (pH 7.4, 310 mOsm). Recordings of HERG channels were conducted using a potassium fluoride-based internal solution with added ATP (160 mM KF, 2 mM MgCl2, 10 mM EGTA, 10 mM HEPES, 4 mM NaATP, pH = 7.2 and 300–320 mOsm). Data acquisition and analysis were performed with Pulse-PulseFit (HEKA Electronik GmbH, Germany), IgorPro (WaveMetrics, Portland, OR), and Origin 9.0 software (OriginLab Corporation, Northampton, MA). To investigate specifically the inactivated state block of NaV1.7 and NaV1.5, holding potentials were set at the V1/2 of maximal inactivation (− 70 mV and − 80 mV, respectively) before voltage stepping to − 150 mV for 20 msec, and then 0 mV for 50 msec to elicit inward currents. Inhibition of currents in the resting state was recorded using a holding potential of − 120 mV. Control test currents were monitored for up to 5–10 min to ensure that the amplitude and kinetics of the response were stable. Series resistance was compensated to 80–90% and linear leak currents and capacitance artifacts were corrected using a P/4 subtraction method. The pulse interval was 0.1 Hz. For all experiments, stock solutions of the drugs were prepared fresh from 10 mM stocks in DMSO and test solutions prepared in external bath solutions were applied to individual cells into the recording bath. […] The percent reduction of HERG tail current amplitude by the compounds was determined. The percent of a block of tail current amplitude by the drugs was determined and data are shown as mean +/− SD (n = 3–4 per data point).

In data set [5] the target is T4, HERG (hKv11.1) (Homo sapiens, UniProt Q12809).
T4 construct: expressed in transfected cells
In words: Whole-cell patch-clamp electrophysiology on HEK293 cells stably expressing HERG, tail current. It counts as cell-based. The note with it: mean. The protocol:
as §1

Values joined by “and” are separate entries in the source; they are usually repeats but may differ in a detail not shown here. Equal values may be shown once. Read-outs that look alike come from different tables or passages of the source.

T3 sequence (Q15858 whole entry): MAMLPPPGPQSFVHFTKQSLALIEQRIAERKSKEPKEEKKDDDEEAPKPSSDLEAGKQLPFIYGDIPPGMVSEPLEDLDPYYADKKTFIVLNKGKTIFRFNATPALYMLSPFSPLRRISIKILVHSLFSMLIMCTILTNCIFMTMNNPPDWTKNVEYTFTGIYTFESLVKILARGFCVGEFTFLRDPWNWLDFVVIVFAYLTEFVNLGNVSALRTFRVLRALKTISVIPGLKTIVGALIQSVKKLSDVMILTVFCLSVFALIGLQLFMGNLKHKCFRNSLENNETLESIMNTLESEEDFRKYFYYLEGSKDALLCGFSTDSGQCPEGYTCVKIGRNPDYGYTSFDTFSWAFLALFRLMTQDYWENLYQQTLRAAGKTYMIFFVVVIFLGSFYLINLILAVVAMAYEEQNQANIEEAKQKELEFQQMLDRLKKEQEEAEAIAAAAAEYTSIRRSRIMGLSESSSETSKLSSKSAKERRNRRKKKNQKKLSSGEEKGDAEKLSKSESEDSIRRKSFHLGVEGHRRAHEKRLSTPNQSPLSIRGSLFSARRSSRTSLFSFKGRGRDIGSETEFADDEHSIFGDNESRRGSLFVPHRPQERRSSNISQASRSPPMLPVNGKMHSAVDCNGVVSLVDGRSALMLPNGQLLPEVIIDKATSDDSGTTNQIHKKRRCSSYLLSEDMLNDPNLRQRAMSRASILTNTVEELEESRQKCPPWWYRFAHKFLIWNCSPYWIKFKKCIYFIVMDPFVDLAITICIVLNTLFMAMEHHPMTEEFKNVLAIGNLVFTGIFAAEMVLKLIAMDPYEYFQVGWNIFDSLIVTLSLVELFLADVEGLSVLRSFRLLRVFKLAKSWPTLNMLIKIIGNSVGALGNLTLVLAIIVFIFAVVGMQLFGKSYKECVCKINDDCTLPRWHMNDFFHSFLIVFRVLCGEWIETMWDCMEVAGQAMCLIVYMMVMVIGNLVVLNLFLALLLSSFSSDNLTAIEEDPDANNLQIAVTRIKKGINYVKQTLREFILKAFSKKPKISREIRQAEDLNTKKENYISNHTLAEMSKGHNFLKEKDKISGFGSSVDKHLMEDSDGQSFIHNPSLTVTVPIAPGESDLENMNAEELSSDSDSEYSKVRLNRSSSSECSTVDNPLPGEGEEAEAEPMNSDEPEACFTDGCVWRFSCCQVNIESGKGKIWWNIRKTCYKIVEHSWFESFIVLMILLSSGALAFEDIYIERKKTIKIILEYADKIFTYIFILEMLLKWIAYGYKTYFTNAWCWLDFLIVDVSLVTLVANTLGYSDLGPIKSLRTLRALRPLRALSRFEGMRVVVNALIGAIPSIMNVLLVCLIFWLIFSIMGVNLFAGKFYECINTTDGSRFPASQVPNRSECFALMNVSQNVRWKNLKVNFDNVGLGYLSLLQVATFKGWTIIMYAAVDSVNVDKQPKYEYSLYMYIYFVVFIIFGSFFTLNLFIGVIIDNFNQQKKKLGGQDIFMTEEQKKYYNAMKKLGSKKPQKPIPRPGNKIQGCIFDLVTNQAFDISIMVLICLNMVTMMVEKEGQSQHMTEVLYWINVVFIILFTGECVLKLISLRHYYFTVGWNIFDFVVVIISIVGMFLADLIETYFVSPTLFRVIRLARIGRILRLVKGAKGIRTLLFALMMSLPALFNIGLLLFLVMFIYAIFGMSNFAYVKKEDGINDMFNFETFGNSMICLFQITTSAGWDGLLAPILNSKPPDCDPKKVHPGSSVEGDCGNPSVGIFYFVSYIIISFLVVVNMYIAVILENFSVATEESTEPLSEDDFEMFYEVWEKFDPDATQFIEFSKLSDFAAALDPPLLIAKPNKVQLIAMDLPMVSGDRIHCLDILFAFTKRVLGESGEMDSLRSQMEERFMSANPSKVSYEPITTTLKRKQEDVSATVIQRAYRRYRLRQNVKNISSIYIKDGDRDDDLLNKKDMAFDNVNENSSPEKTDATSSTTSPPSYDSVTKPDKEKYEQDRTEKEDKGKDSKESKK
T4 sequence (Q12809 whole entry): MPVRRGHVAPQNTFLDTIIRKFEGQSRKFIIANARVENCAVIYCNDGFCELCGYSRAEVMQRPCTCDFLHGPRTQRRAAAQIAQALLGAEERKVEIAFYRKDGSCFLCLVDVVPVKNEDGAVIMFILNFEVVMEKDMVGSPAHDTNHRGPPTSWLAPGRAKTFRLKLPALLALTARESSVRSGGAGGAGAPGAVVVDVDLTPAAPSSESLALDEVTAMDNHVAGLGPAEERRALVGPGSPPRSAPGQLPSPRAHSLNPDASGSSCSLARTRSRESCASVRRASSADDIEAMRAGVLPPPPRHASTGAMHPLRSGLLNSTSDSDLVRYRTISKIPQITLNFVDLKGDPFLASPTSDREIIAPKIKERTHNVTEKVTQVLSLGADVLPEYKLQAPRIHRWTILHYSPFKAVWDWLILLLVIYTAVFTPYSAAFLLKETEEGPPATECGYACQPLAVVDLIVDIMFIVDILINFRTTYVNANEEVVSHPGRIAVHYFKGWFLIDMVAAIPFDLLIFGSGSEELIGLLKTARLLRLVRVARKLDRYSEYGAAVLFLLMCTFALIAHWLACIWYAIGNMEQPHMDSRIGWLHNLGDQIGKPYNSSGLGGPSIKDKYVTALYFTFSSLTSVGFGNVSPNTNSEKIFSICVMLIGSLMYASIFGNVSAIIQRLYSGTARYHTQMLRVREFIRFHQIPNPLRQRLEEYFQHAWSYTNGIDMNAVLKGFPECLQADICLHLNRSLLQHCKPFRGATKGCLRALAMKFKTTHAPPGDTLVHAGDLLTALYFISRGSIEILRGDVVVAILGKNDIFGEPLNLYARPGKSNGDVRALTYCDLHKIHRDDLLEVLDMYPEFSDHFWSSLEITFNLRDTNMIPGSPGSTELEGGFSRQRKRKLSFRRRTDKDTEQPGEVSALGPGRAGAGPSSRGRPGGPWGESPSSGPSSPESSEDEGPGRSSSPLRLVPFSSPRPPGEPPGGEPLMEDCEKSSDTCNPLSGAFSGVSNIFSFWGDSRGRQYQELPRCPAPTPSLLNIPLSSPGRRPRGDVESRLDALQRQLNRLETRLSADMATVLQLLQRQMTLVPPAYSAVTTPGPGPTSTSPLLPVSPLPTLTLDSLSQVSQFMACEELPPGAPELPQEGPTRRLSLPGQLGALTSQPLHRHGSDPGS
T2 sequence (Q14524 whole entry): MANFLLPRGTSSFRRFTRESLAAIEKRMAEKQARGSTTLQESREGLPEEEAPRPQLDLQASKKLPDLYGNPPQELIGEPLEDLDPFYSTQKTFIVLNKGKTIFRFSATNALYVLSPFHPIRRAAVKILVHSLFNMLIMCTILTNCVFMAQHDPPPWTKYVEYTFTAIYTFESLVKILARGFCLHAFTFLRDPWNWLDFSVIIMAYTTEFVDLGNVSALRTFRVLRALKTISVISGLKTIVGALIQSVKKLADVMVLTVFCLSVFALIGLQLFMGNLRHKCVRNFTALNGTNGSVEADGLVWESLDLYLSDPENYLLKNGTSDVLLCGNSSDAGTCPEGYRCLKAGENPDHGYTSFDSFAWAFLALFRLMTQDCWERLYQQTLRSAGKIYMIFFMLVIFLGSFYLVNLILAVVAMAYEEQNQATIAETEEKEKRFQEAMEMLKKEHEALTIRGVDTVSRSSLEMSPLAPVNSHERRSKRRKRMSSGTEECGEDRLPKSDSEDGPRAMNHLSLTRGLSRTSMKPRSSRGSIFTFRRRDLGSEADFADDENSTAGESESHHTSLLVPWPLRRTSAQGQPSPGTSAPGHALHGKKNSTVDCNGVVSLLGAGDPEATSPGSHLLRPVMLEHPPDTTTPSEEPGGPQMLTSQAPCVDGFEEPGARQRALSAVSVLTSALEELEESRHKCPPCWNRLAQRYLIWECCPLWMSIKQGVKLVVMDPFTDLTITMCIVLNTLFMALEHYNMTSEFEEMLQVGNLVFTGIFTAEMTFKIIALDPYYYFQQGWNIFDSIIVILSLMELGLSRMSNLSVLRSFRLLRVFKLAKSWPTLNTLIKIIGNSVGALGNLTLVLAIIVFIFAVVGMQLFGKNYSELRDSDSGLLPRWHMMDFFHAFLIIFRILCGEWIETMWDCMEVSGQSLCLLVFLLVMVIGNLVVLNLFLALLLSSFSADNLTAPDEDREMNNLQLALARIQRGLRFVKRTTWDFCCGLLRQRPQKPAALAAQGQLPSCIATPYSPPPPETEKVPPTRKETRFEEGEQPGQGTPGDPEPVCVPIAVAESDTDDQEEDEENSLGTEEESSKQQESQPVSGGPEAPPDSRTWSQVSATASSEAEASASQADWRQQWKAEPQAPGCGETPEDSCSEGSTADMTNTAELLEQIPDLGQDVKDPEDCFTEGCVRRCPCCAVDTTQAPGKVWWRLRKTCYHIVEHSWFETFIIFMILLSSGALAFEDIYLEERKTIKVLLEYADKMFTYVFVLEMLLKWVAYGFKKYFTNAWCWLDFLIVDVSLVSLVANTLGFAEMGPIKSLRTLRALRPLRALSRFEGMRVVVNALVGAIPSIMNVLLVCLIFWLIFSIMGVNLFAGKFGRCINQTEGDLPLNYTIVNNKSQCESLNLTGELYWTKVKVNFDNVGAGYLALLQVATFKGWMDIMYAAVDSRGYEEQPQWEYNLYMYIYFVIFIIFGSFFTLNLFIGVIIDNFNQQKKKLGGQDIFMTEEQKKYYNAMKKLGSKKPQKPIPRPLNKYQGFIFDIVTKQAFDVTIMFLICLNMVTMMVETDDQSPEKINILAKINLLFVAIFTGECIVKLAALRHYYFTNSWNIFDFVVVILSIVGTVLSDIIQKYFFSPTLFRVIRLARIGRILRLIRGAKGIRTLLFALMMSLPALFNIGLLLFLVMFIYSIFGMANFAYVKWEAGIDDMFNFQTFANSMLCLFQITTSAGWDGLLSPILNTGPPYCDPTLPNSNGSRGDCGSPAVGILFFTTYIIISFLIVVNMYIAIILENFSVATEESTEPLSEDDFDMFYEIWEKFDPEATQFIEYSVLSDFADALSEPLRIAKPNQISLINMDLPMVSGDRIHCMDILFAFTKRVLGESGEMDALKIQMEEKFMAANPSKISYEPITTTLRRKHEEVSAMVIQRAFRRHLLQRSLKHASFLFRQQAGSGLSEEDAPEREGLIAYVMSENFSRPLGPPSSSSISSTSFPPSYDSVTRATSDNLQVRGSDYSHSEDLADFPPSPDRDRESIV

With `CC(C)(C)c1ccc(CSCC(=O)NCc2cn(CC(=O)O)nn2)cc1` [Compound C29], the concentration for half-maximal inhibition (IC50) result in data set [1] was “single digit”; in data set [2] it was ~3 µM and 2.9 µM.

On to `Cc1cc(C(C)(C)C)ccc1OCC(O)CNCc1cc(C)c(C)s1` (centres unmarked) [Compound Z8739902234, CC=1C=C(CNCC(O)COC=2C=CC(=CC2C)C(C)(C)C)SC1C], for which the IC50 in data set [3] was 5.14 µM; in data set [4] (NaV1.7 inactivated state, -70 mV holding potential, read-out: inactivated-state IC50), 1.33 µM and 1.3 µM; in data set [4] (NaV1.7 resting state, -120 mV holding potential, read-out: resting state IC50), 13.1 µM; in data set [5] it was 6.27 µM. Besides, the “selectivity for hNaV1.7 versus hNaV1.5 and hERG channels” value in data set [4] (in words) is listed as “moderate selectivity”. Further, in data set [4] (inactivated versus resting state, in words), the “state dependence of NaV1.7 inhibition” value is “state dependent”.
